The subject of test [1] is H838-KDLKB1 and H838-LKB1 cells. The test is described as follows: Flow cytometry of ROS levels (CellROX staining). Format: cell-based, human. The settings on record: CellROX FACS, 12 h; 2DG 10 mM, Tm 1.25 μg/ml, BFA 30 ng/ml; baseline difference 1.4-fold. As for the experimental part: To analyze levels of reactive oxygen species (ROS), 1×10^6 H838-KDLKB1 and H838-LKB1 cells were plated and treated with the indicated drugs. Cells were then stained with 0.5 1M CellRox™ for 30 min at 37° C., collected by trypsinization and washed with PBS. Following fixation with 2% Paraformaldehyde/PBS for 20 min, cells were brought to a final volume of 500 ll in PBS. CellRox™ staining of ROS was assessed using the Accuri C6 Flow Cytometer (BD Biosciences, San Jose, Calif., USA) with the threshold set at 80,000. A total of 30,000 events were collected per sample and ROS staining intensity determined using FCS Express 4 Flow Cytometer software. Background events were gated out using unstained control. Histogram plots were overlaid and histogram subtraction was performed by subtracting the integral of the stained control from the treated sample.
(A flow cytometer gives signals particle by particle.)

The subject of test [2] is KRas/LKB1^wt and KRas/LKB1^null NSCLC tumors. The test is described as follows: Murine transgenic models of KRas and KRas/LKB1 null NSCLC, MRI tumor volume. Format: in vivo, mice. As for the experimental part: (§1) KRas^G12D/LKB1^lox/lox (KRas/LKB1^null) were generated by selective breeding of Lox-Stop-Lox KRas^G12D mice, purchased from Jackson Laboratories (Bar-Harbor, Me.), with LKB1^lox/lox mice obtained from Mouse Repository at the NCI and were inbred on a FVB background. KRas^G12D/LKB1^wt/wt (KRas/LKB1^wt) mice were generated by backcrossing Lox-Stop-Lox KRas^G12D onto a FVB background. Induction of lung tumors was performed. Briefly, six-week-old KRas/LKB1^null and KRas/LKB1^wt mice were transiently infected with 5×10^6 p.f.u. of Cre adenovirus (University of Iowa adenoviral core) via intranasal infection. At ˜6 weeks (KRas/LKB1^null) or ˜10 weeks (KRas/LKB1^wt) post-infection, mice underwent a baseline MRI scan to determine the baseline tumor burden. Mice with identified disease were randomized for daily treatment with either vehicle (PBS) or 500 mg/kg 2DG for three weeks, at which time mice received a follow-up MRI scan, sacrificed and the presence of disease confirmed by gross assessment and histology. For data generated in FIG. 2, KRas/LKB1^null and KRas/LKB1^wt mice with MRI positive tumors were treated either with 2DG (500 mg/kg) or vehicle (PBS) twice a day for two days before sacrifice and necropsy of tumor tissue. Mice received daily checks to monitor for clinical signs of disease (labored breathing, weight loss) and all procedures were under a protocol approved by the St. Joseph's Hospital and Medical Center IACUC committee.
All the scans were performed using a 7T small animal, 30-cm horizontal-bore magnet and BioSpec Advance III spectrometer (Bruker, Billerica, Mass.) with a 72 mm quadrature volume coil. Each animal was induced and maintained under isoflurane anesthesia, 3.0% and 1.5%, respectively, and delivered with 1.5 L/min of 100% oxygen. During MRI scans, the animal's respiration was continually monitored by a small animal monitoring and gating system (SA Instruments, Stoney Brook, N.Y.) via a pillow sensor positioned on top of the abdomen. Mice were placed on a heated animal bed system (Bruker, Billerica, Mass.) and the normal body temperature (36-37° C.) was maintained. For MR imaging, a Fast Low Angle Shot (FLASH) sequence (TR/TE=40 ms/2 ms; FOV=60 mm×60 mm; Average=2; matrix=256×256; Flip Angle=30°) was used to acquire initial scout images, which were used for locating the lung region for subsequent images. Then T1 weighted images were obtained with the Fast Imaging with Steady State Precession (FISP) sequence (TR/TE 5.262 ms/2.0 ms; 8 segments; FOV=30 mm×30 mm; matrix=256×256; slice thickness=1.0 mm; Flip angle, 20°; 22 averages; total acquisition time=17 min). […] Change in tumor volumes was determined by comparison of baseline tumor volume to tumor volume following three weeks of treatment.

The subject of test [3] is H838-KDLKB1 and H838-LKB1 cells. Put plainly: ATP measurement/cell viability (CellTiter-Glo), H838. The settings on record: 48 h; 2DG 10 mM, Tm 1.25 μg/ml, BFA 30 ng/ml; p<0.005. Format: cell-based, human. As for the experimental part:
500 H838 or A427 cells stably expressing either LKB1 or KDLKB1 were plated in 96 well plates. The following day, cells were dosed with the indicated treatments for 48 h. Cellular ATP levels were assessed using the CellTiter-Glo Luminescent Cell Viability Assay substrate (Promega) according to manufacturer's instructions. Luminescence was read using the DTX 880 Multimode Detector. Cellular ATP/cell viability was calculated relative to vehicle treated control.
On the technique in general: In ATP-based viability assays light output follows the ATP content of the culture.

Test [4] deals with BiP/GRP78 in KRas/LKB1^wt and KRas/LKB1^null NSCLC tumors. Put plainly: Immunohistochemical staining of BiP in NSCLC tumors of treated mice. The settings on record: 500 mg/kg twice a day for two days. Format: in vivo. The method, then:
as §1, with “Mice received daily checks to monitor for clinical signs of disease (labored breathing, weight loss) and all procedures were under a protocol approved by the St. Joseph's Hospital and Medical Center IACUC committee.” left out

Where [5] appears, read: KRas/LKB1^null mice, data not shown.

Each structure is given as a SMILES string.

On to `O=CC[C@@H](O)[C@H](O)[C@H](O)CO` [2DG, 2-deoxy-D-glucose], for which the “ROS levels in H838-KDLKB1, increase in intensity over H838-LKB1” value in test [1] amounted to 2 fold. Besides, the “Growth of NSCLC tumors (change in tumor volume by MRI) compared to vehicle” value in test [2] (500 mg/kg daily, three weeks, KRas/LKB1 wt and KRas/LKB1^null mice) was “reduced the growth of NSCLC tumors”. Further, in test [2] (500 mg/kg daily, three weeks, p=0.0032), the “Response of KRas/LKB1^null tumors compared to KRas/LKB1^wt tumors” value is reported as “statistically greater response”. Besides, in test [2] (setting [5]), the “Effects upon metastasis, gross assessment at necropsy” value is on record as “did not observe any effects upon metastasis” and the “Survival of mice in longer term studies” value was “no statistical impact upon survival”. In addition, the “Cellular ATP in H838-KDLKB1 compared to H838 re-expressing LKB1” value in test [3] is “reduced ATP”. Further, the “BiP protein levels in NSCLC tumor cells of KRas/LKB1^wt mice (IHC)” value in test [4] is listed as “significant increase in BiP protein levels”.

The values are drawn from US10684290B2, “LKB1 related diagnostics and treatments of cancer” (Dignity Health, priority 2014, dated 2020).
